Experimental data as given in ChEMBL document CHEMBL1201862, “PubChem BioAssay data set” (2004).
Several values for one entry are separate records, joined by “and”; a condition that tells them apart may be missing. Equal values may be shown once.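 Following 48 hours of exposure in 96-well plates, responses at five concentrations were used to interpolate endpoints linearly. Abbreviation: GI50, concentration required for 50% inhibition of growth.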 Activity calls are given as the source filed them. No stated cut-off is given here; in the data, active = GI50 up to about 1.1 µM and inactive = higher. Where a SMILES comes first, the peptide text is derived from it. [ ]: non-standard residue; d: D form. The star is where a group is joined. Iva = CC[C](C)(N)C(=O)O; Boc = CC(C)(C)OC(=O)*; X54 = C1CCC(=NO*)C1

Tests used:
Experiment in all cases: growth of human tumour cells (NCI), 48 h
MCF7 = test system: MCF7
DLD-1 = test system: DLD-1
DMS-114 = test system: DMS-114
SNB-78 = test system: SNB-78
LXFL 529 = test system: LXFL 529
RXF 631 = test system: RXF 631
HOP-18 = test system: HOP-18
DMS-273 = test system: DMS-273
XF498 = test system: XF498

SMILES | GI50 (MCF7) | GI50 (DLD-1) | GI50 (DMS-114) | GI50 (SNB-78) | GI50 (LXFL 529) | GI50 (RXF 631) | GI50 (HOP-18) | GI50 (DMS-273) | GI50 (XF498)
COc1ccc(CC[N+]2(C)COc3cc4oc(=O)cc(C)c4cc3C2)cc1OC (configuration not stated) | > 100 µM (inactive) |  |  |  |  |  |  |  | 
OC(c1ccc(Br)cc1)(c1cccs1)C1CC1 (configuration not stated) | 28.2 µM (inactive) |  |  |  |  |  |  |  | 
Cc1occc1C(=S)Nc1ccc(Cl)c(C(=O)OCC(C)C)c1 | 14.6 µM (inactive) |  |  |  |  |  |  |  | 
CSc1nc2c(c(O)c(C)c(=O)n2C2OCC(OC(C)=O)C(OC(C)=O)C2OC(C)=O)c(=O)n1C (configuration not stated) |  | > 100 µM (inactive) | > 100 µM (inactive) | > 100 µM (inactive) | > 100 µM (inactive) |  |  |  | 
CCOC(=O)c1ccc(N2C(=O)/C(=C/c3ccc(N(CCC#N)CCC#N)cc3)N=C2c2cc([N+](=O)[O-])ccc2Cl)cc1 |  | > 100 µM (inactive) | > 100 µM (inactive) | > 100 µM (inactive) | > 100 µM (inactive) | > 100 µM (inactive) | > 100 µM (inactive) | > 100 µM (inactive) | 
O=C1CCC[C@]2(CCC[C@@H](O)C2)N1 | > 100 µM (inactive) |  |  |  |  |  |  |  | 
CCOC(=O)/C(C#N)=C\c1ccc(N(CCC(=O)O)CCC(=O)O)c(I)c1 | > 10 µM (inactive) |  |  |  |  |  |  |  | 
CC1=NN(C(=O)c2ccc(C)cc2)C(=O)C1/N=N/c1ccccc1C(=O)O (configuration not stated) | > 100 µM (inactive) | > 100 µM (inactive) | > 100 µM (inactive) | > 94 µM (inactive) |  |  | > 100 µM (inactive) | > 100 µM (inactive) | 61.8 µM (inactive)
CCOC(=O)c1c(CN2CCNCC2)nc2ccccc2c1-c1ccccc1 | 14.3 µM (inactive) |  |  |  |  |  |  |  | 
COc1ccccc1/C=C1\Sc2scc(-c3cccc([N+](=O)[O-])c3)[n+]2C1=O | 2 µM (inactive) |  |  |  |  |  |  |  | 
CC(Oc1ccc(Oc2cnc3ccc(Cl)cc3n2)cc1)C(=O)O (configuration not stated) | 37.3 µM (inactive) and 84.3 µM (inactive) |  |  |  |  |  |  |  | 
Cc1cc2c(nn1)-c1ccccc1C2=O | > 10 µM (inactive) |  |  |  |  |  |  |  | 
CCC(C)(NC(=O)C(C)NC(=O)OC(C)(C)C)C(=O)NC(C)C(=O)NC(C)(CC)C(=O)ON=C1CCCC1 (configuration not stated) (Boc-A[Iva]A[Iva]-X54; configuration not given here) | > 100 µM (inactive) |  |  |  |  |  |  |  | 
OCC(O)COc1ccc(Br)cc1 (configuration not stated) |  | > 100 µM (inactive) | > 100 µM (inactive) |  | > 100 µM (inactive) | > 100 µM (inactive) | > 100 µM (inactive) | > 100 µM (inactive) | > 100 µM (inactive)
C/C(=N/NC(=O)c1ccncc1)C(F)(F)F | > 100 µM (inactive) |  |  |  |  |  |  |  | 
CC(=O)c1ccc(Oc2ccc(/C(C)=N\N=C(N)N)cc2)cc1 |  | 3.56 µM (inactive) | 1.43 µM (inactive) | 2.8 µM (inactive) | 4.18 µM (inactive) |  |  |  | 

SMILES | GI50 (MCF7) | GI50 (DLD-1) | GI50 (DMS-114) | GI50 (SNB-78) | GI50 (LXFL 529) | GI50 (RXF 631) | GI50 (HOP-18) | GI50 (DMS-273) | GI50 (XF498)
CCCCCCCCCCCCCCCc1ccc(OCC(O)CO)cc1 (configuration not stated) |  | 44.2 µM (inactive) | 29.7 µM (inactive) | 29.7 µM (inactive) | 26.7 µM (inactive) | 27.1 µM (inactive) | > 100 µM (inactive) | 17.7 µM (inactive) | 19.4 µM (inactive)
COc1ccc(OC)c(/C=C/C(=O)C(C)(C)C)c1 |  | 19.9 µM (inactive) | 15.2 µM (inactive) |  | 19.2 µM (inactive) | 32.8 µM (inactive) | 21.3 µM (inactive) | 21.1 µM (inactive) | 
COc1cc2cc[n+]3c(C)c4cc(OC)c(OC)cc4c([O-])c3c2cc1OC |  | > 100 µM (inactive) | 30.3 µM (inactive) | > 100 µM (inactive) | 40.1 µM (inactive) |  |  | 53.6 µM (inactive) | 22.1 µM (inactive)
Cc1nn(-c2ccccc2)c(S)c1C(=O)c1ccccc1 |  | 4.85 µM (inactive) | 26.4 µM (inactive) | 24.4 µM (inactive) | 18.2 µM (inactive) | 27 µM (inactive) | < 0.01 µM (active) | 40.1 µM (inactive) | 35.2 µM (inactive)
COc1ncnc2c(Cl)c(C(O)c3ccccc3)c(Cl)cc12 (configuration not stated) | 31.4 µM (inactive) |  |  |  |  |  |  |  | 
CSc1cc(=O)n2c3ccccc3c3ccnc1c32 | 34.6 µM (inactive) | 49.7 µM (inactive) | > 100 µM (inactive) | > 70.8 µM (inactive) |  |  |  | 79.6 µM (inactive) | 
CC(C(=O)O)c1cnn(-c2ccccc2)c1-n1cccc1 (configuration not stated) | > 100 µM (inactive) | > 100 µM (inactive) |  | > 100 µM (inactive) |  |  | > 100 µM (inactive) | > 100 µM (inactive) | > 100 µM (inactive)
O=[N+]([O-])c1ccc(-c2nc(/C=N/N3CCCCC3)cs2)o1 | 38.6 µM (inactive) |  |  |  |  |  |  |  | 
C/C=C1\CCC2c3[nH]c4ccccc4c3CCN2C1 (configuration not stated) |  | > 100 µM (inactive) | 91.8 µM (inactive) | > 100 µM (inactive) | > 100 µM (inactive) |  |  | > 100 µM (inactive) | 17.1 µM (inactive)
O=C1C(Cl)N(c2ccc(Cl)cc2)C1c1c[nH]c2ccccc12 (configuration not stated) |  |  | 14.2 µM (inactive) |  | 14.1 µM (inactive) |  |  |  | 17.5 µM (inactive)
O=C1C(CO)=C[C@H](O)[C@H]2O[C@@H]12 | 126 µM (inactive) | 113 µM (inactive) | 137 µM (inactive) | 186 µM (inactive) |  |  | > 625 µM (inactive) | 185 µM (inactive) | 177 µM (inactive)
CCOC(=O)C1=C(C)N(C2OC(COC(C)=O)C(OC(C)=O)C(OC(C)=O)C2OC(C)=O)C(=O)NC1c1ccccc1 (configuration not stated) |  | > 100 µM (inactive) | > 100 µM (inactive) | > 100 µM (inactive) | > 100 µM (inactive) | > 100 µM (inactive) | > 100 µM (inactive) |  | 
O=S1(=O)Cc2ccc3c4c2-c2c(ccc5ccc(c-4c25)CS(=O)(=O)C3)C1 | 92.3 µM (inactive) |  |  |  |  |  |  |  | 
COc1cc(C(O)(CC#N)c2cc3c(cc2Br)OCO3)cc(OC)c1OC (configuration not stated) | 14.7 µM (inactive) |  |  |  |  |  |  |  | 
O=C1C(Cl)=C(Cl)C(=O)C2=C1C1c3ccccc3C2c2ccccc21 | 71.4 µM (inactive) |  |  |  |  |  |  |  | 
CCCCc1ccc(N2C(=O)c3cc([N+](=O)[O-])cnc3S2(=O)=O)cc1 | 59.8 µM (inactive) |  |  |  |  |  |  |  | 
